# Results as given in patent US5767085A, “Compounds with growth hormone releasing properties” (Novo Nordisk A/S, priority 1993, dated 1998).
# Where a SMILES comes first, the peptide text is derived from it. [ ]: non-standard residue; d: D form. d1Nal = N[C@H](Cc1cccc2ccccc12)C(=O)O; d2Nal = N[C@H](Cc1ccc2ccccc2c1)C(=O)O; Aib = CC(C)(N)C(=O)O
# Test system: rat pituitary cells
# Assay: In-vitro GH release assay using rat pituitary cells (rGH measured by SPA)
# Format: cell-based
# Details: GH secretion from cultured male rat anterior pituitary cells, 15 min stimulation
# Experimental: An in-vitro assay using rat pituitary cells was established to study the effect of different GH secretagogues. The mixed pituitary cell culture was isolated from the anterior pituitary of male rats and cultured for 3 days. After washing the cells were stimulated for 15 min and the amount of GH secreted measured in the culture supernatant. The isolation of rat pituitary cells was a modification of 0. Sartor et al., Endocrinolog 116, 1985, pp. 952-957. Pituitaries were discharged from 250 g male Sprague-Dawley rats after decapitation. The neurointermediate lobes were removed and the remainder was placed in Grey's medium supplemented with 0.25% glucose, 2× non essential amino acid and 1% BSA (isolation buffer). The glands were cut into small pieces and transferred to a flask containing 3 ml isolation buffer+11.5 mg trypsin and 1000 μg DNase and incubated for 35 min at 37° C., 95% ° 2 and 70 rotations per min. The fragments were washed 3 times by sedimentation in isolation buffer and aspirated into single cells by using a pasteur pipet. After dispersion the cells were filtered though a nylon filter (160 jum) to remove undigested tissue. The cells were washed 3 times with isolation buffer supplemented with trypsin inhibitor (0.75 mg/ml) and resuspended in culture medium (DMEM supplemented with 25 mM HEPES, 4mM Glutamine, 0.75% sodium bicarbonate, 2.5% FCS, 3% horse serum, 10% rat serum, 1 nM T3 and 40 gg/L dexamethasone) to a density of 2×10^5 cells/ml. The cells were seeded into microtiter plates, 200 μl/well and cultured for 3 days at 37° C.and 8% CO2. Following the culture period the cells were washed twice with stimulation buffer (HBSS supplemented with 1% BSA, 0.25% D-glucose and 25 mM HEPES) and preincubated for 1 hour. The buffer was then removed and new stimulation buffer containing the peptide was added and the plates were incubated for 15 min at 37° C.and 5% CO2. The medium was collected and analyzed for rat growth hormone (rGH) content in a scintillation proximity assay (SPA) as follows (SPA, essentially as described in U.S. Pat. No. 4,568,649, Hart and […], Mol.Immunol. 16, 1979, pp. 265-269, or Udenfriend et al., Proc.Natl.Acad.Sci. USA 82, 1985, pp. 8672-8676). The rGH assay was performed in OptiPlates (96-well plates) suitable for direct counting in a […] TopCount (β-scintillation counter). Assay Protocol: 40 μl buffer 10 μl sample (incubated stimulation buffer) […] 50 μl rabbit anti-rGH 50 μl SPA reagent (anti-rabbit antibody) The plates are sealed and placed on a plate shaker for 30 minutes followed by 10 hours of incubation and settling at 10-15° C.and counting. In the SPA, rGH bound to an anti-GH rabbit antibody (primary antibody) is reacted with a second antibody bound to fluomicrospheres (SPA Type II RIA available from Amersham). Any radiolabelled rGH which is bound to the primary antibody will be immobilized on the fluomicrospheres which will then produce light. Measurement in a β-scintillation counter makes it possible to calculate the amount of radiolabelled rGH. The amount of radiolabelled rGH bound to the fluomicrospheres decreases with an increasing content of rGH in the sample.
EC50 [nM],Structure (SMILES),Emax (% of GHRP-6)
11,"C[C@H](NC(=O)[C@@H](Cc1ccccc1)NC(=O)[C@@H](Cc1ccc2ccccc2c1)NC(=O)[C@H](Cc1c[nH]cn1)NC(=O)C(C)(C)N)C(N)=O [Example 88, H--Aib--His--D-2Nal-D--Phe--Ala--NH2] (H-[Aib]H[d2Nal][dF]A-NH2)",80 % of GHRP-6
10,"C[C@H](N)C(=O)N[C@@H](Cc1c[nH]cn1)C(=O)N[C@H](Cc1cccc2ccccc12)C(=O)N[C@H](Cc1ccccc1)C(=O)N[C@@H](CCCCN)C(N)=O [Example 51, H--Ala--His--D-1Nal-D--Phe--Lys--NH2] (H-AH[d1Nal][dF]K-NH2)",85 % of GHRP-6
2,"C[C@H](N)C(=O)N[C@@H](Cc1ccccc1)C(=O)N[C@H](Cc1ccc2ccccc2c1)C(=O)N[C@H](Cc1ccccc1)C(=O)N[C@@H](CCCCN)C(N)=O [Example 10, H--Ala--Phe--D-2Nal-D--Phe--Lys--NH2] (H-AF[d2Nal][dF]K-NH2)",90 % of GHRP-6
8,"CC(C)(N)C(=O)N[C@@H](Cc1ccccc1)C(=O)N[C@H](Cc1ccc2ccccc2c1)C(=O)N[C@H](Cc1ccccc1)C(=O)N[C@@H](CCCCN)C(N)=O [Example 83, H--Aib--Phe--D-2Nal-D--Phe--Lys--NH2] (H-[Aib]F[d2Nal][dF]K-NH2)",75 % of GHRP-6
